Literature values as cited in patent publication US20100111901A1, “TRIAZOLE INHIBITORS OF AROMATASE” (priority 2008, published 2010).

Legend:
[1] = target: CYP2A6 (Homo sapiens, UniProt P11509)
[2] = in vivo
[3] = target: CYP1A2 (Homo sapiens, UniProt P05177); details: strongest in decreasing order of magnitude
[4] = target: CYP2D6 (Homo sapiens, UniProt P10635)
CYP2D6, sequence (P10635 whole entry): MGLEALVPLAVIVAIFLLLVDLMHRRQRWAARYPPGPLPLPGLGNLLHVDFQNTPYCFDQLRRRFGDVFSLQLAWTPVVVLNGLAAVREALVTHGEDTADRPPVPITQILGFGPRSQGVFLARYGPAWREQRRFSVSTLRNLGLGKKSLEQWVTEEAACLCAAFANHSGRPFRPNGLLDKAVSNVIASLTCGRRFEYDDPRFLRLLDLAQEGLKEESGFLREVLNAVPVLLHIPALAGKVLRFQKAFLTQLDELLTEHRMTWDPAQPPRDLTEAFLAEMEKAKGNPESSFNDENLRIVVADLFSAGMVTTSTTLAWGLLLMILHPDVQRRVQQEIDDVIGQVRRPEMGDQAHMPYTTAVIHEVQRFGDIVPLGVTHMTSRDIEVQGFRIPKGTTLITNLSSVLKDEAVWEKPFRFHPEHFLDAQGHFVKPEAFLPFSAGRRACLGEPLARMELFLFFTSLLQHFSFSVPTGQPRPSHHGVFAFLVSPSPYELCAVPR

CYP2A6, sequence (P11509 whole entry): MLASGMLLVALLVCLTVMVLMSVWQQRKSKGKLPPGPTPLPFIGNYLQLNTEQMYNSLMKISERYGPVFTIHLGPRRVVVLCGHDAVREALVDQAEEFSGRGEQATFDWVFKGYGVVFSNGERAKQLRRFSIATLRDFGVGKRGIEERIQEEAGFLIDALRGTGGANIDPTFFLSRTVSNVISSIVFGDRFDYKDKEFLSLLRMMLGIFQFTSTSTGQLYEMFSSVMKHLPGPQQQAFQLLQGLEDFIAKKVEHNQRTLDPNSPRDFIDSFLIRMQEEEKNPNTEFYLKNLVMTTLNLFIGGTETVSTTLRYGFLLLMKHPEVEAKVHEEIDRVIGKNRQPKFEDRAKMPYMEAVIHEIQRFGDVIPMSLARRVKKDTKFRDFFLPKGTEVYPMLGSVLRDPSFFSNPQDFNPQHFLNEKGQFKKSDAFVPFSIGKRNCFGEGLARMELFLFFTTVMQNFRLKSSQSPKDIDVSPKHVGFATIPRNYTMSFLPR
CYP1A2, sequence (P05177 whole entry): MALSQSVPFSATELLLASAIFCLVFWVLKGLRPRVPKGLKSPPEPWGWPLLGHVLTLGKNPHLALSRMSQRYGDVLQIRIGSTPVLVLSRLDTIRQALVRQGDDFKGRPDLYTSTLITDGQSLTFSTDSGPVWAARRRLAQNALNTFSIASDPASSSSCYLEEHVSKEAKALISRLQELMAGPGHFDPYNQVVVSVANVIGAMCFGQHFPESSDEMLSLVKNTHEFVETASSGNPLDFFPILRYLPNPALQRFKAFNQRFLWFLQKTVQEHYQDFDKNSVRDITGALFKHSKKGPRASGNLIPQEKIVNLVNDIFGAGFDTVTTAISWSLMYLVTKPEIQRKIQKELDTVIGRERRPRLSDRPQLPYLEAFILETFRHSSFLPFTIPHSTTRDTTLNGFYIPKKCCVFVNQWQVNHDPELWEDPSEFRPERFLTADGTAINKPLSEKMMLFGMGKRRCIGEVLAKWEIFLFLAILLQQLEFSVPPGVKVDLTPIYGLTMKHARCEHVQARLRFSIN

For `CC(C)(C#N)c1cc(Cn2cncn2)cc(C(C)(C)C#N)c1` [Anastrozole, 2-[3-(2-cyano-2-propyl)-5-(1,2,4-triazol-1-ylmethyl)phenyl]-2-methylpropiononitrile], the “effect on CYP2A6” value [1] is listed as “no effect”, the “mean terminal elimination half-life” value [2] is listed as 40 to 50 h and the “inhibition of CYP1A2” value [3] is listed as “inhibits”. For the same molecule, the “effect on CYP2D6” value [4] was “no effect”.
